Assay results from the supplement of paper PMC10307832.

Experiments:
Assay in all cases: relative viability (nuclei count vs DMSO), 5 days (fraction); higher = more cells survive
EBC-1 = tested on: EBC-1
Summary of the method: (§1)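 Medians of duplicate plates are given as relative viability. That measure is the nuclei count in treated wells divided by the count in vehicle wells. Counts were taken on 4× images of lung cancer cell lines in 1536-well plates, 5 days after pin-tool dosing the day after seeding with one drug alone or a fixed anchor-drug dose plus five library-drug doses (not always all listed) in √10 steps.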

NCI-H1623 = tested on: NCI-H1623
Summary of the method: as §1

A-427 = tested on: A-427
Summary of the method: as §1

NCI-H2009 = tested on: NCI-H2009
Summary of the method: as §1

NCI-H1703 = tested on: NCI-H1703
Summary of the method: as §1

NCI-H1299 = tested on: NCI-H1299
Summary of the method: as §1

NCI-H1650 = tested on: NCI-H1650
Summary of the method: as §1

UMC-11 = tested on: UMC-11
Summary of the method: as §1

Calu-6 = tested on: Calu-6
Summary of the method: as §1

NCI-H1734 = tested on: NCI-H1734
Summary of the method: as §1

A549 = tested on: A549
Summary of the method: as §1

CAL-12T = tested on: CAL-12T
Summary of the method: as §1

LK-2 = tested on: LK-2
Summary of the method: as §1

IA-LM = tested on: IA-LM
Summary of the method: as §1

Question: Which relative viability (EBC-1; first compound 0.005 µM) does the source give for `COc1cc2nccc(Oc3ccc(NC(=O)Nc4cc(C)on4)c(Cl)c3)c2cc1OC` [Tivozanib] + COc1cc2c(Oc3ccc(NC(=O)C4(C(=O)Nc5ccc(F)cc5)CC4)cc3F)ccnc2cc1OCCCN1CCOCC1 [Foretinib] (partner 0.25 µM) here?
Answer: The relative viability was 0.103.

Question: What about the relative viability (EBC-1; first compound 0.01581 µM) of the same compound?
Answer: The relative viability was 0.104.

Question: And the relative viability (EBC-1; first compound 0.05 µM)?
Answer: The relative viability was 0.11.

Question: What about the relative viability (EBC-1; first compound 0.1581 µM) of the same compound?
Answer: The relative viability was 0.0953.

Question: What about the relative viability (EBC-1; first compound 0.5 µM) of the same compound?
Answer: The relative viability was 0.0941.

Question: And the relative viability (NCI-H1623; first compound 0.005 µM)?
Answer: Its relative viability is 0.821.

Question: What about the relative viability (NCI-H1623; first compound 0.01581 µM) of the same compound?
Answer: The relative viability was 0.989.

Question: And the relative viability (NCI-H1623; first compound 0.05 µM)?
Answer: The relative viability was 0.938.

Question: What about the relative viability (NCI-H1623; first compound 0.1581 µM) of the same compound?
Answer: The relative viability was 0.888.

Question: And the relative viability (NCI-H1623; first compound 0.5 µM)?
Answer: Its relative viability is 0.914.

Question: And the relative viability (A-427; first compound 0.005 µM)?
Answer: Its relative viability is 1.03.

Question: And the relative viability (A-427; first compound 0.01581 µM)?
Answer: Its relative viability is 1.11.

Question: And the relative viability (A-427; first compound 0.05 µM)?
Answer: The relative viability was 1.05.

Question: And the relative viability (A-427; first compound 0.1581 µM)?
Answer: The relative viability was 1.06.

Question: And the relative viability (A-427; first compound 0.5 µM)?
Answer: Its relative viability is 1.02.

Question: What about the relative viability (NCI-H2009; first compound 0.005 µM) of the same compound?
Answer: The relative viability was 1.2.

Question: And the relative viability (NCI-H2009; first compound 0.01581 µM)?
Answer: The relative viability was 1.16.

Question: What about the relative viability (NCI-H2009; first compound 0.05 µM) of the same compound?
Answer: Its relative viability is 1.19.

Question: What about the relative viability (NCI-H2009; first compound 0.1581 µM) of the same compound?
Answer: The relative viability was 1.19.

Question: What about the relative viability (NCI-H2009; first compound 0.5 µM) of the same compound?
Answer: The relative viability was 1.13.

Question: What about the relative viability (NCI-H1703; first compound 0.005 µM) of the same compound?
Answer: The relative viability was 0.335.

Question: What about the relative viability (NCI-H1703; first compound 0.01581 µM) of the same compound?
Answer: Its relative viability is 0.385.

Question: And the relative viability (NCI-H1703; first compound 0.05 µM)?
Answer: The relative viability was 0.384.

Question: And the relative viability (NCI-H1703; first compound 0.1581 µM)?
Answer: Its relative viability is 0.33.

Question: And the relative viability (NCI-H1703; first compound 0.5 µM)?
Answer: The relative viability was 0.405.

Question: What about the relative viability (NCI-H1299; first compound 0.005 µM) of the same compound?
Answer: Its relative viability is 1.05.

Question: What about the relative viability (NCI-H1299; first compound 0.01581 µM) of the same compound?
Answer: The relative viability was 1.09.

Question: And the relative viability (NCI-H1299; first compound 0.05 µM)?
Answer: Its relative viability is 1.11.

Question: And the relative viability (NCI-H1299; first compound 0.1581 µM)?
Answer: The relative viability was 1.18.

Question: And the relative viability (NCI-H1299; first compound 0.5 µM)?
Answer: Its relative viability is 1.04.

Question: And the relative viability (NCI-H1650; first compound 0.005 µM)?
Answer: The relative viability was 0.955.

Question: What about the relative viability (NCI-H1650; first compound 0.01581 µM) of the same compound?
Answer: Its relative viability is 1.18.

Question: And the relative viability (NCI-H1650; first compound 0.05 µM)?
Answer: The relative viability was 1.15.

Question: And the relative viability (NCI-H1650; first compound 0.1581 µM)?
Answer: The relative viability was 0.935.

Question: What about the relative viability (NCI-H1650; first compound 0.5 µM) of the same compound?
Answer: The relative viability was 1.08.

Question: And the relative viability (UMC-11; first compound 0.005 µM)?
Answer: The relative viability was 1.07.

Question: What about the relative viability (UMC-11; first compound 0.01581 µM) of the same compound?
Answer: The relative viability was 1.04.

Question: What about the relative viability (UMC-11; first compound 0.05 µM) of the same compound?
Answer: The relative viability was 1.1.

Question: What about the relative viability (UMC-11; first compound 0.5 µM) of the same compound?
Answer: Its relative viability is 1.01.

Question: What about the relative viability (Calu-6; first compound 0.005 µM) of the same compound?
Answer: The relative viability was 0.896.

Question: And the relative viability (Calu-6; first compound 0.01581 µM)?
Answer: The relative viability was 0.845.

Question: And the relative viability (Calu-6; first compound 0.05 µM)?
Answer: The relative viability was 0.929.

Question: What about the relative viability (Calu-6; first compound 0.1581 µM) of the same compound?
Answer: The relative viability was 0.824.

Question: What about the relative viability (Calu-6; first compound 0.5 µM) of the same compound?
Answer: Its relative viability is 0.876.

Question: And the relative viability (NCI-H1734; first compound 0.005 µM)?
Answer: The relative viability was 0.88.

Question: And the relative viability (NCI-H1734; first compound 0.01581 µM)?
Answer: The relative viability was 0.888.

Question: What about the relative viability (NCI-H1734; first compound 0.05 µM) of the same compound?
Answer: The relative viability was 0.913.

Question: And the relative viability (NCI-H1734; first compound 0.1581 µM)?
Answer: The relative viability was 0.823.

Question: What about the relative viability (NCI-H1734; first compound 0.5 µM) of the same compound?
Answer: The relative viability was 0.863.

Question: What about the relative viability (A549; first compound 0.005 µM) of the same compound?
Answer: The relative viability was 0.804.

Question: And the relative viability (A549; first compound 0.01581 µM)?
Answer: Its relative viability is 0.987.

Question: And the relative viability (A549; first compound 0.05 µM)?
Answer: The relative viability was 1.01.

Question: What about the relative viability (A549; first compound 0.1581 µM) of the same compound?
Answer: Its relative viability is 0.976.

Question: What about the relative viability (A549; first compound 0.5 µM) of the same compound?
Answer: The relative viability was 1.04.

Question: And the relative viability (CAL-12T; first compound 0.005 µM)?
Answer: Its relative viability is 1.07.

Question: And the relative viability (CAL-12T; first compound 0.01581 µM)?
Answer: The relative viability was 0.998.

Question: What about the relative viability (CAL-12T; first compound 0.05 µM) of the same compound?
Answer: Its relative viability is 1.11.

Question: And the relative viability (CAL-12T; first compound 0.1581 µM)?
Answer: The relative viability was 1.24.

Question: What about the relative viability (CAL-12T; first compound 0.5 µM) of the same compound?
Answer: The relative viability was 0.916.

Question: And the relative viability (LK-2; first compound 0.005 µM)?
Answer: The relative viability was 1.36.

Question: And the relative viability (LK-2; first compound 0.01581 µM)?
Answer: Its relative viability is 1.09.

Question: What about the relative viability (LK-2; first compound 0.05 µM) of the same compound?
Answer: The relative viability was 1.18.

Question: And the relative viability (LK-2; first compound 0.1581 µM)?
Answer: Its relative viability is 1.1.

Question: What about the relative viability (LK-2; first compound 0.5 µM) of the same compound?
Answer: The relative viability was 1.02.

Question: What about the relative viability (IA-LM; first compound 0.005 µM) of the same compound?
Answer: Its relative viability is 1.21.

Question: And the relative viability (IA-LM; first compound 0.01581 µM)?
Answer: Its relative viability is 1.15.

Question: And the relative viability (IA-LM; first compound 0.05 µM)?
Answer: Its relative viability is 1.24.

Question: What about the relative viability (IA-LM; first compound 0.1581 µM) of the same compound?
Answer: The relative viability was 1.32.

Question: What about the relative viability (IA-LM; first compound 0.5 µM) of the same compound?
Answer: The relative viability was 0.94.
